US4479962A, “Indazoloxypropanolamine derivatives and use in combating, and for the prophylaxis of, cardiac and circulatory diseases” (Boehringer Mannheim GmbH, priority 1981, dated 1984)

System: left ventricle
Assay: Cardiotonic effect in wake dogs, left ventricular dp/dt, in relation to isoprenalin
Assay type: in vivo
Conditions: intravenous, wake mongrel dogs, average of two to four individual tests; for ED50: Canis lupus familiaris, increasing dosage in intervals of ten minutes, read-out: ED50 (dosage which achieves one-half of the maximum effect), dp/dt; for dp/dt (%) of 0.3/μg/kg Isoprenalin i.v. (maximum achievable effect in comparison to isoprenalin): relative to 0.3 μg/kg isoprenalin i.v.
Experimental: For the tests, mongrel dogs of both sexes were used. In a preparatory operation, catheters had been inserted under aseptic conditions into the Arteria and Vena femoralis and, through the myocardium, into the left ventricle. The tests were begun not less than ten days after this operation, when the animals were again in a clinically healthy state. Throughout the test, during which the animals were wake, the arterial blood pressure was determined by means of a catheter and an electromechanical transducer. In addition, the pressure in the left ventricle was continuously measured by means of a tip manometer which had been introduced into the ventrical catheter and advanced as far as the heart, and from that pressure the differentiation based on the time dp/dt max was determined. The heart rate (f cor) was computed by counting the heart beats at a fast chart speed at given times of measurement. At the beginning of the experiments the animals were injected intravenously with 0.3 μg/kg of isoprenalin and the effect on the rapidity of the pressure increase recorded. After dissipation of this injection the test compounds were injected intravenously in increasing dosage rates in intervals of ten minutes and again the effect of each dosage level determined. For the characterization of the effectiveness of the test compounds two criteria were calculated: 1. The termination of the achievable maximum effect in comparison to isoprenalin. The maximum achievable effect of the test compound was compared to that of isoprenalin. (The higher the value, the stronger the effect.) 2. From the logarithm of the injected dosages and the effect after injection, the dosage was determined which achieves one-half of the maximum effect (ED 50). […]

SMILES | ED50 [µg/kg] | dp/dt (%) of 0.3/μg/kg Isoprenalin i.v. (maximum achievable effect in comparison to isoprenalin) [%]
Cc1cccc(C)c1NCCNCC(O)COc1cccc2c1CCN2C=O (centres unmarked) [1-(1-formylindolin-4-yloxy)-3-[2-(2,6-dimethylphenylamino)-ethylamino]-propan-2-ol] | 4.2 | 87
Cc1cccc(C)c1NCCNCC(O)COc1cccc2[nH]nnc12.Cl.Cl (centres unmarked) [1-(Benztriazol-4-yloxy)-3-[2-(2,6-dimethylphenylamino)-ethylamino]-propan-2-ol dihydrochloride] | 3.5 | 100
Cc1cccc(C)c1NCCNCC(O)COc1cccc2[nH]ncc12 (centres unmarked) [1-(Indazol-4-yloxy)-3-[2-(2,6-dimethylphenylamino)ethylamino]-propan-2-ol] | 2.2 | 87
Cc1cccc(C)c1NCCNCC(O)COc1cccc2[nH]ccc12.O=C(O)O (centres unmarked) [1-(Indol-4-yloxy)-3-[2-(2,6-dimethylphenylamino)-ethylamino]-propan-2-ol dihydrogen carbonate] | 3.2 | 85
O=[N+]([O-])c1cccc(NCCNCC(O)COc2cccc3[nH]ncc23)c1 (centres unmarked) [1-(indazol-4-yloxy)-3-[2-(3-nitrophenylamino)-ethylamino]-propan-2-ol] | 2 | 66
OC(CNCCNc1cccc2c1CCC2)COc1cccc2[nH]ncc12 (centres unmarked) [1-(indazol-4-yloxy)-3-[2-(indanyl-4-amino)-ethylamino]-propan-2-ol] | 4.9 | 83
Cc1cccc(C)c1NCCCNCC(O)COc1cccc2[nH]ncc12 (centres unmarked) [1-(indazol-4-yloxy)-3-[3-2,6-dimethylphenylamino)-propylamino]-propan-2-ol] | 4.2 | 110
